Data reported in ChEMBL document CHEMBL5329205, “Development of novel quinoline-NO donor hybrids inducing human breast cancer cells apoptosis via inhibition of topoisomerase I” (Bioorg Med Chem, 2023).

How the values were obtained:
MCF7 [1] = assay: Antiproliferative activity against human MCF7 cells assessed as inhibition of cell growth incubated for 48 hrs by MTT assay; format: functional, cell-based; conditions: MCF7, 48 h
[2] = Cytotoxicity against human MCF-10A cells assessed as cell growth inhibition measured after 48 hrs by MTT assay; format: toxicity, cell-based
NCI/ADR-RES = assay: Antiproliferative activity against human MCF7ADR cells assessed as inhibition of cell growth measured after 48 hrs by MTT assay; format: functional, cell-based
A549 = assay: Antiproliferative activity against human A549 cells assessed as inhibition of cell growth incubated for 48 hrs by MTT assay; format: functional, cell-based; conditions: A549, 48 h
HCT-116 = assay: Antiproliferative activity against human HCT-116 cells assessed as inhibition of cell growth incubated for 48 hrs by MTT assay; format: functional, cell-based; conditions: HCT-116, 48 h
[3] = Toxicity in BALB/c mouse xenografted with human MCF7 cells assessed as liver damage at 10 mg/kg, ip administered once every two days for 3 weeks by H and E staining based microscopic analysis; format: organism-based; conditions: in vivo, 504 h
[4] = Toxicity in BALB/c mouse xenografted with human MCF7 cells assessed as lung damage at 10 mg/kg, ip administered once every two days for 3 weeks by H and E staining based microscopic analysis; format: organism-based; conditions: in vivo, 504 h
[5] = Toxicity in BALB/c mouse xenografted with human MCF7 cells assessed as kidney damage at 10 mg/kg, ip administered once every two days for 3 weeks by H and E staining based microscopic analysis; format: organism-based; conditions: in vivo, 504 h
[6] = Toxicity in BALB/c mouse xenografted with human MCF7 cells assessed as spleen damage at 10 mg/kg, ip administered once every two days for 3 weeks by H and E staining based microscopic analysis; format: organism-based; conditions: in vivo, 504 h
[7] = Toxicity in BALB/c mouse xenografted with human MCF7 cells assessed as heart damage at 10 mg/kg, ip administered once every two days for 3 weeks by H and E staining based microscopic analysis; format: organism-based; conditions: in vivo, 504 h
MCF7 [8] = assay: Antitumor activity against human MCF7 cells xenografted in BALB/c nude mouse assessed as reduction in tumor weight at 10 mg/kg, ip administered once every two days for 3 weeks relative to control; format: functional; parameters: scale not given: the % may be the effect or the level left

| SMILES | IC50 (MCF7 [1]) | IC50 at 48 h [2] | IC50 (NCI/ADR-RES) | IC50 (A549) | IC50 (HCT-116) | Activity [3] | Activity [4] | Activity [5] | Activity [6] | Activity [7] | Activity (MCF7 [8]) |
| --- | --- | --- | --- | --- | --- | --- | --- | --- | --- | --- | --- |
| O=S(=O)(c1ccccc1)c1c(OCCCCCO)no[n+]1[O-] | 14.4 µM | – | – | – | – | – | – | – | – | – | – |
| COc1cc(-c2cc(C(=O)OCCCCOc3no[n+]([O-])c3S(=O)(=O)c3ccccc3)c3ccccc3n2)cc(OC)c1OC | 1.47 µM | 36.5 µM | 1.09 µM | 2.41 µM | 2.03 µM | – | – | – | – | – | – |
| O=C(OCCCCCOc1no[n+]([O-])c1S(=O)(=O)c1ccccc1)c1ccnc2ccccc12 | > 5 µM | 4.21 µM | 4.66 µM | > 5 µM | 4.95 µM | – | – | – | – | – | – |
| COc1cc(-c2cc(C(=O)OCCOc3no[n+]([O-])c3S(=O)(=O)c3ccccc3)c3ccccc3n2)cc(OC)c1OC | 2.25 µM | 16.3 µM | 3.35 µM | 2.69 µM | 3.79 µM | – | – | – | – | – | – |
| O=C(OCCOc1no[n+]([O-])c1S(=O)(=O)c1ccccc1)c1ccnc2ccccc12 | 4.6 µM | 23.2 µM | 3.32 µM | 3.49 µM | > 5 µM | – | – | – | – | – | – |
| O=C(OCCCCOc1no[n+]([O-])c1S(=O)(=O)c1ccccc1)c1ccnc2ccccc12 | 4.22 µM | 32.2 µM | 4.28 µM | > 5 µM | 4 µM | – | – | – | – | – | – |
| COc1cc(-c2cc(C(=O)OCCCOc3no[n+]([O-])c3S(=O)(=O)c3ccccc3)c3ccccc3n2)cc(OC)c1OC | 1.66 µM | 30.7 µM | 1.27 µM | 2.3 µM | 2.49 µM | – | – | – | – | – | – |
| CC(=O)O[C@H]1C(=O)[C@@]2(C)[C@H]([C@H](OC(=O)c3ccccc3)[C@]3(O)C[C@H](OC(=O)[C@H](O)[C@@H](NC(=O)c4ccccc4)c4ccccc4)C(C)=C1C3(C)C)[C@]1(OC(C)=O)CO[C@@H]1C[C@@H]2O [PACLITAXEL] | – | – | – | – | – | Non-Toxic | Non-Toxic | Non-Toxic | Non-Toxic | Non-Toxic | 61.18% |
| COc1cccc2c1C(=O)c1c(O)c3c(c(O)c1C2=O)C[C@@](O)(C(=O)CO)C[C@@H]3O[C@H]1C[C@H](N)[C@H](O)[C@H](C)O1 [DOXORUBICIN] | – | – | – | 0.57 µM | 0.72 µM | – | – | – | – | – | – |
| COc1cc(-c2cc(C(=O)O)c3ccccc3n2)cc(OC)c1OC | > 50 µM | – | – | – | – | – | – | – | – | – | – |
| O=C(OCCCCCCOc1no[n+]([O-])c1S(=O)(=O)c1ccccc1)c1ccnc2ccccc12 | 4.22 µM | 34.1 µM | 5.51 µM | > 5 µM | 4.97 µM | – | – | – | – | – | – |
| COc1cc(-c2cc(C(=O)OCCCCCCOc3no[n+]([O-])c3S(=O)(=O)c3ccccc3)c3ccccc3n2)cc(OC)c1OC | 3.16 µM | 28.2 µM | 3.32 µM | 2.71 µM | 4.35 µM | – | – | – | – | – | – |
| O=C(OCCCOc1no[n+]([O-])c1S(=O)(=O)c1ccccc1)c1ccnc2ccccc12 | 4.23 µM | 25.4 µM | 5.16 µM | > 5 µM | 4.37 µM | – | – | – | – | – | – |
| O=C(O)c1ccnc2ccccc12 | > 50 µM | > 50 µM | > 50 µM | > 50 µM | > 50 µM | – | – | – | – | – | – |
